# From patent publication US10004732B2 (Novartis AG, priority 2014, dated 2018)
# Structures can show the parent of a compound that is named as a salt. Where two headings read alike, the source gives them in different places.
# Legend:
# Vps34 = Vps34 (Homo sapiens, UniProt Q8NEB9); test: Kinase Glo Luminescent Kinase Assay (Kglo), assay C; assay type: biochemical; conditions: read-out: Assay C VPS34 IC50
# Experimental: (§1) Kinase Glo Luminescent Kinase Assay (Kglo) for Pb 3-Kinase Alpha (A), Pb 3-Kinase Beta (B), Vps34 (C), Pb 4-Kinase Beta (D)
# (§2) The Kinase Glo Luminescent Kinase Assay (Promega, Madison/Wis., USA) is a homogeneous HTS method of measuring kinase activity by quantifying the amount of ATP remaining in solution following a kinase reaction.
# (§3) L-α-phosphatidylinositol (PI), provided as 10 mg/ml solution in methanol, was transferred into a glass tube and dried under a nitrogen beam. It was then resuspended in 3% OctylGlucoside (1-0-n-octyl-beta-D-glucopyranoside) by vortexing and stored at 4° C. 5 μL of a mix of PI/OctylGlucoside with the PI 3-kinase alpha and PI 3-kinase beta subtypes, or Vps34 or PI 4-kinase beta were added. Kinase reactions were started by the addition of 5 μl of an ATP-mix containing in a final volume 10 μL 10 mM TRIS-HCl pH 7.5, 3 mM MgCl2, 50 mM NaCl, 0.05% CHAPS, 1 mM DTT and 1 μM ATP at room temperature.
# (§4) All fits were performed with the program XLfit4 (ID Business Solutions, Guildford, UK).
# PI 3-kinase gamma = PI 3-kinase gamma (Homo sapiens, UniProt P48736); test: TR-FRET Adapta assay, assay E; assay type: biochemical; conditions: read-out: Assay E PI3Kγ IC50
# PI 3-kinase gamma, sequence (P48736 whole entry): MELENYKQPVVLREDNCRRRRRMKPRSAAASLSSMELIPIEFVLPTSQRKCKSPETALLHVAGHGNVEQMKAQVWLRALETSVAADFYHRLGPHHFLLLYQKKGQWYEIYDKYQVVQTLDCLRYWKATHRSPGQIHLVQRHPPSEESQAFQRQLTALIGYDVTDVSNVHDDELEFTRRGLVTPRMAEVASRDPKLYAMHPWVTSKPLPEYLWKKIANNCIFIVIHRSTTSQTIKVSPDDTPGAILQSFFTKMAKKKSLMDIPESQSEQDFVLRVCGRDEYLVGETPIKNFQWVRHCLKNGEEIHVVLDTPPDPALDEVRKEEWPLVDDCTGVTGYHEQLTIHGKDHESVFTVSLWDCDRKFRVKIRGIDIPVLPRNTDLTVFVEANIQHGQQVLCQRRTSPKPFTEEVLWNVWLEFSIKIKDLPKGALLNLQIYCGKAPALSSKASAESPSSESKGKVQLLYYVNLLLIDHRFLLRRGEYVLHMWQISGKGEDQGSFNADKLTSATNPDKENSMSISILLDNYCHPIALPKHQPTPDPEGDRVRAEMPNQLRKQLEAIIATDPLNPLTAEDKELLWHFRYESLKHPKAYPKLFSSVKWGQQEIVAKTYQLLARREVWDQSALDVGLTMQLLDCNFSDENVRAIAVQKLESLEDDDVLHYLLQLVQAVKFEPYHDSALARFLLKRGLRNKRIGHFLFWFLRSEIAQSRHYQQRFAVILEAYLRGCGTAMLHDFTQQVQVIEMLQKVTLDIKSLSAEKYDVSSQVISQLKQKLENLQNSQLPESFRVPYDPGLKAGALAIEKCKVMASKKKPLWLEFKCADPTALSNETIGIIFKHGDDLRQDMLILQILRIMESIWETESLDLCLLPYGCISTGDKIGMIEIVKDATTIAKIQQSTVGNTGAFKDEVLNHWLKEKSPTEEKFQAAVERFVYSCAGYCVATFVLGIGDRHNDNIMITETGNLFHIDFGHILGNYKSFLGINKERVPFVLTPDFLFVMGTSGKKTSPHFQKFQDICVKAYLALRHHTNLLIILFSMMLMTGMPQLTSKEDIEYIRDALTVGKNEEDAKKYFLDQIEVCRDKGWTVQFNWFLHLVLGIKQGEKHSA
# PI 4-kinase beta = PI 4-kinase beta (Homo sapiens, UniProt Q9UBF8); test: Kinase Glo Luminescent Kinase Assay (Kglo), assay D; assay type: biochemical; conditions: read-out: Assay D PI4Kβ IC50
# PI 4-kinase beta, sequence (Q9UBF8 whole entry): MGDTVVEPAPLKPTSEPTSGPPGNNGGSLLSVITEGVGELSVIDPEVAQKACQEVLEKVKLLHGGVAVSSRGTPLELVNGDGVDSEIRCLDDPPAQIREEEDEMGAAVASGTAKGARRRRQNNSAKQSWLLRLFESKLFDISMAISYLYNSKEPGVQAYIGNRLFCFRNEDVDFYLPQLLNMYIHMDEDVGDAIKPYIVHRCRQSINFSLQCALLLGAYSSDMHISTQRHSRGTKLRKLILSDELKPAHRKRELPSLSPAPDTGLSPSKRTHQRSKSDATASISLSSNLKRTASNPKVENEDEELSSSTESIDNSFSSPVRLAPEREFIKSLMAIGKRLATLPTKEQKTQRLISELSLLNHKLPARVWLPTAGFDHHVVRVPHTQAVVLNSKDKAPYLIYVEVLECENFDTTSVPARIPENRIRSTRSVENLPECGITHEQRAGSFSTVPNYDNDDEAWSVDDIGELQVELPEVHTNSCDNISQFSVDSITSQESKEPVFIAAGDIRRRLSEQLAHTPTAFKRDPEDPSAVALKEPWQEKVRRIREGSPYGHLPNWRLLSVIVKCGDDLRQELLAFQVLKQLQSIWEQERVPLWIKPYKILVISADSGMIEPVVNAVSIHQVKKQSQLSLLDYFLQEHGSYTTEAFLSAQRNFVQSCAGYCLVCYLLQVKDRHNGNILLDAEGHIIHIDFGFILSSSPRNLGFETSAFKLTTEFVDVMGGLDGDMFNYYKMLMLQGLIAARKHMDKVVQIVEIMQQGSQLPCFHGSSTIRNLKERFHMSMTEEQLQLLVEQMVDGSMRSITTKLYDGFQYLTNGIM
# Experimental: as §1, §2, §3, §4
# PI 3-kinase delta = PI 3-kinase delta (Homo sapiens, UniProt O00329); test: TR-FRET Adapta assay, assay F; conditions: read-out: Assay F PI3Kδ IC50
# Experimental: TR-FRET Adapta Assay for PI 3-Kinase Gamma (E), PI 3-Kinase Delta (F)
# The TR-FRET Adapta™ Universal Kinase Assay Kit was purchased from Invitrogen Corporation (Carlsbad/CA, USA) (Cat. No. PV5099).
# PIK3CD substrate phosphatidylinositol (PI) was obtained from Invitrogen (vesicules consisting of 2 mM phosphatidylinositol (PI) in 50 mM HEPES pH7.5; Cat. No. PV5371). PIK3CG substrate phosphatidylinositol-4,5-bisphosphate (PIP(4,5)2 was obtained from Invitrogen (PIP2:PS large unilamellar vesicules consisting of 1 mM PIP2: 19 mM PS in 50 mM HEPES pH7.5, 3 mM MgCl2, 1 mM EGTA; Cat. No. PV5100).
# Time-Resolved Fluorescence Resonance Energy Transfer (TR-FRET) is a technology based on energy transfer between two adjacent dyes, from an excited electron in one dye (the donor) to an electron of an adjacent dye (the acceptor) through resonance, then released as a photon. This energy transfer is detected by an increase in the fluorescence emission of the acceptor, and a decrease in the fluorescence emission of the donor. TR-FRET assays for protein kinases use a long-lifetime lanthanide Terbium or Europium chelates as the donor species which overcome interference from compound autofluorescence or light scatter from precipitated compounds, by introducing a delay after excitation by a flashlamp excitation source. Results are often expressed as a ratio of the intensities of the acceptor and donor fluorophores. The ratiometric nature of such a value corrects for differences in assay volumes between wells, as well as corrects for quenching effects due to colored compounds. The Adapta™ assay can be divided into two phases: a kinase reaction phase and an ADP detection phase. In the kinase reaction phase, all kinase reaction components are added to the well and the reaction is allowed to incubate for a set period of time specific for each kinase. […] In the presence of an inhibitor, the amount of ADP formed by the kinase reaction is reduced, and the resulting intact antibody-tracer interaction maintains a high TR-FRET signal.
# 50 nL of compound dilutions were dispensed onto white 384-well small volume polystyrene plate. Then 5 μL of either PI 3-kinase gamma or PI 3-kinase delta and lipid substrate (PI or PIP2:PS) followed by 5 μL of ATP (final assay volume 10 μL) are incubated at RT. The standard reaction buffer for the Adapta™ TR-FRET assay contained 10 mM Tris-HCl pH 7.5, 3 mM MgCl2, 50 mM NaCl, 1 mM DTT, 0.05% CHAPS 3-[(3-cholamidopropyl)dimethylammonio]-1-propanesulfonate).
# Data are analyzed using Excel fit software or Graphpad Prism. IC50 values were derived by fitting a sigmoidal dose-response curve to a plot of assay readout over inhibitor concentration. All fits were performed with the program XLfit4 (ID Business Solutions, Guildford, UK). […] All fits were performed with the program XLfit4 (ID Business Solutions, Guildford, UK).
# [1] = Microsomal clearance assay (M); conditions: intrinsic clearance in rat liver microsomes
# Experimental: The experiments were performed in 96-well glass plates at 37° C. on an automated Tecan EVO platform. Test compounds at a concentration of 10 mM in pure DMSO were diluted 1:1000 in water to 10 μM. […] Reactions were initiated by the addition of 150 μL of a cofactor solution containing 2 mM NADPH.
# PI 3-kinase alpha = PI 3-kinase alpha (Homo sapiens, UniProt P42336); test: Kinase Glo Luminescent Kinase Assay (Kglo), assay A; assay type: biochemical; conditions: read-out: Assay A PI3Kα IC50
# PI 3-kinase alpha, sequence (P42336 whole entry): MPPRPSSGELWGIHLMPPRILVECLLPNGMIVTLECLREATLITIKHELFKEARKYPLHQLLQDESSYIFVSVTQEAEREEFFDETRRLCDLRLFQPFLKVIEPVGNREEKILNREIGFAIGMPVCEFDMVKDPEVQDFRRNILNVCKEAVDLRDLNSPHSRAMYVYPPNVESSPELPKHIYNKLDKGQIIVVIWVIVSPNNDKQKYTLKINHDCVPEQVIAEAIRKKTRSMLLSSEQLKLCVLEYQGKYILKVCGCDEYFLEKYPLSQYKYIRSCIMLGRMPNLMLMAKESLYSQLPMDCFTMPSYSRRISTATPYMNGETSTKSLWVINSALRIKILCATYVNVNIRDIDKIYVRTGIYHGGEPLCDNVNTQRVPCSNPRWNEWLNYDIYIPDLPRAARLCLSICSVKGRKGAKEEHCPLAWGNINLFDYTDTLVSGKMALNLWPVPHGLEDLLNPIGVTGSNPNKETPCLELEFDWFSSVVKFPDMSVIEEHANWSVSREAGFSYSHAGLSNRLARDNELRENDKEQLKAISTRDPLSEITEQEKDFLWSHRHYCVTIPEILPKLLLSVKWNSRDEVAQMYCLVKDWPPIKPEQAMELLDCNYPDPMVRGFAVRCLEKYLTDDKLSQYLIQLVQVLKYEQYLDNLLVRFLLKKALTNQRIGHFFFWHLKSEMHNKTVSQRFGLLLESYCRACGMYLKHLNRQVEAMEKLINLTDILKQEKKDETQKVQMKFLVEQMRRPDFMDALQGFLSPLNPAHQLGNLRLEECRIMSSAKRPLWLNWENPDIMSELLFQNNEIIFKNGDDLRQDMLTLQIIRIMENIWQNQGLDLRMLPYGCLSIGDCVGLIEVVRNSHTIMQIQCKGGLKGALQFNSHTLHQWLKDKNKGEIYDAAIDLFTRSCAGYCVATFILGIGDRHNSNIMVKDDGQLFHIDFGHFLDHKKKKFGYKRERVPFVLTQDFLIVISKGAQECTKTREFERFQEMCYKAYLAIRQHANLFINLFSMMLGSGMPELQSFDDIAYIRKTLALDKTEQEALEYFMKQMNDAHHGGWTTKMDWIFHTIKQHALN
# mTOR = mTOR (Homo sapiens, UniProt P42345); test: Lanthascreen kinase binding assay, assay G; conditions: read-out: Assay G mTOR IC50
# Experimental: Lanthascreen™ Kinase Binding Assay for mTOR (G)
# Binding of an inhibitor to the kinase competes for binding with the tracer, resulting in a loss of FRET.
# 50 nL of compound dilutions were dispensed onto white 384-well small volume polystyrene plate.
# [2] = system: IL-8-induced neutrophil shape change in human whole blood; test: Whole blood neutrophil shape change assay (L); assay type: cell-based; conditions: IL-8, human whole blood, read-out: Assay L WBSC IC50
# Experimental: Whole Blood Neutrophil Shape Change Assay (L)
# IL-8 was made up to 2 μM stocks in 0.1% bovine serum albumin/PBS and stored at −80° C. On the day IL-8 was diluted in PBS (phosphate buffered saline) 10 minutes before use. IL-8 was used at final concentration of 2 nM and a concentration range from 0.003 to 200 nM for the donor dose response curve.
# Assay fixative solution was prepared fresh each day from 10× concentrated CellFIX™ solution diluted 1:10 in sterile distilled water and then 1:4 with PBS. Assay fixative solution was kept on ice prior to use.
# A 10× lysis buffer was prepared in advance by dissolving 20.75 g NH4Cl and 2.5 g KHCO3 in 250 ml sterile H2O. This 10× lysis buffer was filtered under sterile conditions and stored for up to two weeks at 4° C. On the day a 1× lysis solution was prepared with sterile distilled H2O and kept on ice prior to use.
# The test compounds were prepared as 10 mM stock solutions in 100% DMSO and were stored at 4° C. Once in use for an assay 10 mM stock compounds were thawed and stored at RT protected from light. Compound dilutions were prepared fresh on the day. The first series of dilutions in 100% DMSO were done first thing in the morning. Only once blood had been collected and arrived in laboratory was the next set of dilutions into PBS carried out (1:10 PBS, 10% DMSO). This limited the exposure of diluted compound to plastic and made sure the exposure timing was consistent between assays.
# Compound dilutions in 100% DMSO were prepared as described previously. Human whole blood was collected in K2 EDTA Vacutainers. Once blood was in the laboratory, compound dilutions into PBS were carried out as described previously and depicted in Table 1.
# The outer wells of the deep well assay plate were filled with 1200 μl of sterile distilled H2O in an effort to limit edge effects (rows A1-H1, A1-A12, A12-H12).
# An IL-8 dose response was determined for each blood donor examined, to monitor the donor response to IL-8. At this step in assay preparation for the IL-8 dose response samples 10 μl of PBS was added to designated wells. In addition the assay window without DMSO was also assessed each day. For such samples at this step in assay preparation 10 μl of PBS was added in the place of 10% DMSO.
# Lids were placed on the 96 well plates and samples were incubated for 15 minutes at 37° C. in a water-bath.
# Following the compound pre-incubation 10× final IL-8 was added to appropriate wells (10 μl of 20 nM working stock IL-8, final IL-8 concentration in blood=2 nM) and 10 μl of PBS was added to the un-stimulated controls. 10× final dose response range IL-8 was also added to designated wells (final concentration range on assay plate was 200 nM to 0.0005 nM, 1:5 serial dilution in PBS). The IL-8 and PBS were added to appropriate wells across all assay plates in the same sequence as the blood to compound addition. […] Samples were incubated for 5 minutes at 37° C. in a water-bath. Following the incubation sample plates were transferred to ice where 250 μl of chilled Assay Fixative Buffer was added promptly to all wells.
# Samples were incubated on ice for 7 minutes (no mixing). […] Once added samples were mixed once and incubated on ice for 30 minutes to achieve uniform red blood cells lysis. After lysis, 200 μl of sample was transferred to a 96 well microplate on ice. […] Granulocytes were identified based on differential side scatter (SSC) and forward scatter (FSC) characteristics.
# PI 3-kinase beta = PI 3-kinase beta (Homo sapiens, UniProt P42338); test: Kinase Glo Luminescent Kinase Assay (Kglo), assay B; assay type: biochemical; conditions: read-out: Assay B PI3Kβ IC50
# PI 3-kinase beta, sequence (P42338 whole entry): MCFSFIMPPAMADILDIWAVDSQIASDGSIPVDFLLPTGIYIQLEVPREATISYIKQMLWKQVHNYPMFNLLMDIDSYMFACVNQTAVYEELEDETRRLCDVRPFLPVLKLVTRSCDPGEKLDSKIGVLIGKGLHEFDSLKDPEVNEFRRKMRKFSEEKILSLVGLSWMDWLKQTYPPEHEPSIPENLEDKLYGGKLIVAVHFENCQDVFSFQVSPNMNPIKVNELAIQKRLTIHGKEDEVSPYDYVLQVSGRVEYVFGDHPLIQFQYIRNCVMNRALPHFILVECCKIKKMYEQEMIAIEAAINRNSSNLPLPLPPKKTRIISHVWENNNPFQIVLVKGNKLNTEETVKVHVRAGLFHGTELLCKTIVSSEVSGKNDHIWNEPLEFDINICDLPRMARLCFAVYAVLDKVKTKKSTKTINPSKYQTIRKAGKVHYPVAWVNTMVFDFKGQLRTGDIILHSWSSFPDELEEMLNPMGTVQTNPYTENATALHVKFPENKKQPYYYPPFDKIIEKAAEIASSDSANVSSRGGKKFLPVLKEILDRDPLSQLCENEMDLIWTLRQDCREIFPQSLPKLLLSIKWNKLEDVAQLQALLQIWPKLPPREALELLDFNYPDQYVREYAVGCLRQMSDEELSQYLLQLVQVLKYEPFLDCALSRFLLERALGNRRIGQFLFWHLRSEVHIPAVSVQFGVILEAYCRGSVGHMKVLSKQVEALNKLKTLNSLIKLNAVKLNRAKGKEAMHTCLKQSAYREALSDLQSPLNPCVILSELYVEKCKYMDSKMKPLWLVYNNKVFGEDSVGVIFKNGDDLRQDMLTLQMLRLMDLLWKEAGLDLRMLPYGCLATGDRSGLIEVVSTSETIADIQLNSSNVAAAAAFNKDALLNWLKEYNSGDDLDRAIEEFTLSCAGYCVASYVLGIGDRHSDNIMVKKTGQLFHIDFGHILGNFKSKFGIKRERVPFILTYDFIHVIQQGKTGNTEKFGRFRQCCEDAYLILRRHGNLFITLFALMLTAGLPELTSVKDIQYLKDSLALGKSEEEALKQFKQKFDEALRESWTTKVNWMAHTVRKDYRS
# PI 3-kinase beta, sequence (P27986 461-568 partner): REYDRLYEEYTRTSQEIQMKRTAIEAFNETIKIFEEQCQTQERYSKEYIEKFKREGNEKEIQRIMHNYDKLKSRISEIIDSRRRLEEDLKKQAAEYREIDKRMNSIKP
# Vps34, sequence (Q8NEB9 whole entry, species assumed): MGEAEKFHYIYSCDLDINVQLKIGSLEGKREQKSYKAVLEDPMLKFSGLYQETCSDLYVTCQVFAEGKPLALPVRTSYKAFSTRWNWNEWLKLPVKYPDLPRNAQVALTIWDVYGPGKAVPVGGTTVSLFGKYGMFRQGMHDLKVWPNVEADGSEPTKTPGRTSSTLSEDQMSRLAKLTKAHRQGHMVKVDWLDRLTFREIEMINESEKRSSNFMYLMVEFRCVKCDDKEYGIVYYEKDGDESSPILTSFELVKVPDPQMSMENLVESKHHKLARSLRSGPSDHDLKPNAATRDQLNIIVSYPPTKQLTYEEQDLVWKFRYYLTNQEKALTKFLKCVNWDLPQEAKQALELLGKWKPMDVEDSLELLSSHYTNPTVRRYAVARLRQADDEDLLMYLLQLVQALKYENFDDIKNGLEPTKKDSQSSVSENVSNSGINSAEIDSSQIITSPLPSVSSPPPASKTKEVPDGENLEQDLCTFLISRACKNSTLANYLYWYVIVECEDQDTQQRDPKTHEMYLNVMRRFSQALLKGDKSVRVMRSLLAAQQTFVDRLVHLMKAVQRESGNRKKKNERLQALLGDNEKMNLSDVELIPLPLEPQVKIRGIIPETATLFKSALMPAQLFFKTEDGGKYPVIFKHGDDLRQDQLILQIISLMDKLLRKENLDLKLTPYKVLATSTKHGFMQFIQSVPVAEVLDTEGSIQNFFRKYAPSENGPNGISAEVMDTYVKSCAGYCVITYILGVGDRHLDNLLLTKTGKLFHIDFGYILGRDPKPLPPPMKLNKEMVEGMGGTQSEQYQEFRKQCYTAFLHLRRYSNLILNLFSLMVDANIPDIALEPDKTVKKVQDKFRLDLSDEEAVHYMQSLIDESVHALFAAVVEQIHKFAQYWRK
Structure (SMILES),IC50 (Vps34) [µM],IC50 (PI 3-kinase gamma) [nM],IC50 (PI 4-kinase beta) [µM],IC50 (PI 3-kinase delta) [nM],Assay M RLM CI(int) [1] [µL/min/mg],IC50 (PI 3-kinase alpha) [nM],IC50 (mTOR) [µM],"IC50 ([2]; Homo sapiens, Neutrophil) [nM]",IC50 (PI 3-kinase beta) [nM],IC50 [2] [nM]
"Cc1nc(C)n(-c2nc(-c3cc(S(=O)(=O)NCC(C)(C)O)ccc3C)cnc2N)n1 [Example 49, 3-(5-Amino-6-(3,5-dimethyl-1H-1,2,4-triazol-1-yl)pyrazin-2-yl)-N-(2-hydroxy-2-methylpropyl)-4-methylbenzenesulfonamide]",> 10,49,> 10,1700,20,620,> 10,856,5300,
"Cc1cc(-c2nc(-c3cc(S(=O)(=O)NCCC(C)(C)O)ccc3C)cnc2N)on1 [Example 89, 3-(5-Amino-6-(3-methylisoxazol-5-yl)pyrazin-2-yl)-N-(3-hydroxy-3-methylbutyl)-4-methylbenzenesulfonamide]",3.4,,7,840,46,420,> 10,3700,1300,
"Cc1ncc(-c2nc(-c3cc(S(=O)(=O)NCC4COC4)ccc3C)cnc2N)s1 [Example 45.1, 3-(5-Amino-6-(2-methylthiazol-5-yl)pyrazin-2-yl)-4-methyl-N-(oxetan-3-ylmethyl)benzenesulfonamide]",1.9,11,3,80,70,50,,306,200,
"Cc1cc(-c2nc(-c3cc(S(=O)(=O)NC4CCN(C(C)C)CC4)ccc3C)cnc2N)ccn1 [Example 129.21, 3-(5-amino-6-(2-methylpyridin-4-yl)pyrazin-2-yl)-N-(1-isopropylpiperidin-4-yl)-4-methylbenzenesulfonamide]",> 9.1,53,> 9.1,1000,,2900,> 9.1,8950,> 9100,
"Cc1ccc(S(=O)(=O)NCC[C@@H](O)C(F)(F)F)cc1-c1cnc(N)c(-c2cn(C)nc2C)n1 (single isomer, unassigned) [Example 52a, (R)-3-(5-Amino-6-(1,3-dimethyl-1H-pyrazol-4-yl)pyrazin-2-yl)-4-methyl-N-(4,4,4-trifluoro-3-hydroxybutyl)benzenesulfonamide or (S)-3-(5-Amino-6-(1,3-dimethyl-1H-pyrazol-4-yl)pyrazin-2-yl)-4-methyl-N-(4,4,4-trifluoro-3-hydroxybutyl)benzenesulfonamide]",> 10,16,5.5,,60,170,,,,806
"Cc1ccc(S(=O)(=O)NCC2(O)CCOCC2)cc1-c1cnc(N)c(-n2cncn2)n1 [Example 32, 3-(5-Amino-6-[1,2,4]triazol-1-yl-pyrazin-2-yl)-N-(4-hydroxy-tetrahydropyran-4-ylmethyl)-4-methylbenzenesulfonamide]",> 10,,4.05,,28,,> 10,668,,
"Cc1ccc(S(=O)(=O)NCC(C)(C)O)cc1-c1cnc(N)c(-n2cc(C)c(C)n2)n1 [Example 47, 3-(5-Amino-6-(3,4-dimethyl-1H-pyrazol-1-yl)pyrazin-2-yl)-N-(2-hydroxy-2-methylpropyl)-4-methyl benzenesulfonamide]",> 10,49,8.7,530,140,330,> 10,3140,6000,
"Cc1ccc(S(=O)(=O)NCC(C)(C)O)cc1-c1cnc(N)c(-c2nc(C(C)C)no2)n1 [Example 97, 3-(5-Amino-6-(3-isopropyl-1,2,4-oxadiazol-5-yl)pyrazin-2-yl)-N-(2-hydroxy-2-methylpropyl)-4-methylbenzenesulfonamide]",> 10,,> 10,,60,,> 10,2150,,
"Cc1noc(-c2nc(-c3cc(S(=O)(=O)NCC(C)(C)CO)ccc3C)cnc2N)n1 [Example 92, 3-(5-Amino-6-(3-methyl-1,2,4-oxadiazol-5-yl)pyrazin-2-yl)-N-(3-hydroxy-2,2-dimethylpropyl)-4-methylbenzenesulfonamide]",> 9.1,73,> 9.1,690,64,1400,> 9.1,1160,8200,
Cc1ccc(S(=O)(=O)NC[C@@H]2CCC(C)(C)O2)cc1-c1cnc(N)c(-n2cncn2)n1 [Example 127.39],> 10,100,> 10,2100,,1400,9.3,6280,2300,
"Cc1ccc(S(=O)(=O)NC[C@H]2CCNC2)cc1-c1cnc(N)c(-n2cncn2)n1 [Example 127.58, (S)-3-(5-amino-6-(1H-1,2,4-triazol-1-yl)pyrazin-2-yl)-4-methyl-N-(pyrrolidin-3-ylmethyl)benzenesulfonamide trifluoroacetic acid salt]",> 10,42,> 10,460,,1300,1.2,23600,1300,
"Cc1ccc(S(=O)(=O)NCC(C)(C)O)cc1-c1cnc(N)c(-c2cnn(C)c2)n1 [Example 46.2, 3-(5-Amino-6-(1-methyl-1H-pyrazol-4-yl)pyrazin-2-yl)-N-(2-hydroxy-2-methylpropyl)-4-methylbenzenesulfonamide]",> 10,54,6.2,730,49,480,9.7,597,2000,
Cc1ccc(S(=O)(=O)NC[C@@H]2CCOC2)cc1-c1cnc(N)c(-n2cncn2)n1 [Example 127.26],> 10,150,5.2,230,,570,5.9,1790,2000,
"CCN1CCC[C@@H]1CNS(=O)(=O)c1ccc(C)c(-c2cnc(N)c(-c3ccnc(C)c3)n2)c1 [Example 129.25, (R)-3-(5-amino-6-(2-methylpyridin-4-yl)pyrazin-2-yl)-N-((1-ethylpyrrolidin-2-yl)methyl)-4-methylbenzenesulfonamide]",> 9.1,42,> 9.1,380,,540,> 9.1,2950,2300,
"Cc1cc(-c2nc(-c3cc(S(=O)(=O)NCC4(O)CCC4)ccc3C)cnc2N)ccn1 [Example 129.5, 3-(5-amino-6-(2-methylpyridin-4-yl)pyrazin-2-yl)-N-((1-hydroxycyclobutyl)methyl)-4-methylbenzenesulfonamide]",> 9.1,38,5,570,79,270,6.5,1170,> 9100,
"Cc1cc(-c2nc(-c3cc(S(=O)(=O)NC4CC(F)(F)C4)ccc3C)cnc2N)ccn1 [Example 129.2, 3-(5-amino-6-(2-methylpyridin-4-yl)pyrazin-2-yl)-N-(3,3-difluorocyclobutyl)-4-methylbenzenesulfonamide]",> 9.1,22,7,1200,130,280,6.1,2420,4300,
Cc1ccc(S(=O)(=O)NC2CC(F)(F)C2)cc1-c1cnc(N)c(-n2cncn2)n1 [Example 127.7],> 10,40,6.3,1100,,260,1.5,3990,1300,
"Cc1cc(-c2nc(-c3cc(S(=O)(=O)NC4CCC(CO)CC4)ccc3C)cnc2N)ccn1 (stereo not shown) [Example 129.1, 3-(5-amino-6-(2-methylpyridin-4-yl)pyrazin-2-yl)-N-(4-(hydroxymethyl)cyclohexyl)-4-methylbenzenesulfonamide]",> 9.1,23,6.5,250,,190,6.3,721,6300,
